Experimental data published in BindingDB's records for doi:10.1016/s0960-894x(99)00552-1 (Smithkline Beecham Pharmaceuticals, 1999).

Test: Inhibitory activity against IgE receptor

SMILES | IC50
CC(C)(C)[C@H](NC(=O)C(C[C@H]1CCc2ccccc2C1)[C@H](O)C(=O)NO)C(N)=O (some centres not stated) | 0.07 µM
CC(C)(C)[C@H](NC(=O)[C@H](Cc1ccc2cc(F)c(F)cc2c1)[C@H](O)C(=O)NO)C(N)=O [(2R,3S)-N*1*-((S)-1-Carbamoyl-2,2-dimethyl-propyl)-2-(6,7-difluoro-naphthalen-2-ylmethyl)-3,N*4*-dihydroxy-succinamide] | > 1 µM
CC(C)(C)[C@H](NC(=O)[C@H](Cc1cnc2ccccc2c1)[C@H](O)C(=O)NO)C(N)=O [(2R,3S)-N*4*-((S)-1-Carbamoyl-2,2-dimethyl-propyl)-2,N*1*-dihydroxy-3-quinolin-3-ylmethyl-succinamide] | 0.02 µM
NC(=O)[C@H](Cc1ccccc1)NC(=O)[C@H](Cc1ccc2cc(F)ccc2c1)[C@H](O)C(=O)NO [(2R,3S)-N*1*-((S)-1-Carbamoyl-2-phenyl-ethyl)-2-(6-fluoro-naphthalen-2-ylmethyl)-3,N*4*-dihydroxy-succinamide] | 0.22 µM
NC(=O)[C@H](Cc1ccccc1)NC(=O)[C@H](Cc1cc2ccccc2s1)[C@H](O)C(=O)NO [(2R,3S)-2-Benzo[b]thiophen-2-ylmethyl-N*1*-((S)-1-carbamoyl-2-phenyl-ethyl)-3,N*4*-dihydroxy-succinamide] | 0.02 µM
CC(C)(C)[C@H](NC(=O)[C@H](Cc1ccc2ncccc2c1)[C@H](O)C(=O)NO)C(N)=O [(2R,3S)-N*4*-((S)-1-Carbamoyl-2,2-dimethyl-propyl)-2,N*1*-dihydroxy-3-quinolin-6-ylmethyl-succinamide] | 1 µM
CNC(=O)[C@@H](NC(=O)[C@H](Cc1ccc2c(c1)CCCC2)[C@H](O)C(=O)NO)C(C)(C)C [(2R,3S)-N*4*-((S)-2,2-Dimethyl-1-methylcarbamoyl-propyl)-2,N*1*-dihydroxy-3-(5,6,7,8-tetrahydro-naphthalen-2-ylmethyl)-succinamide] | > 10 µM
NC(=O)[C@H](Cc1ccccc1)NC(=O)[C@H](Cc1ccc2ccc(OCc3ccccc3)cc2c1)[C@H](O)C(=O)NO [(2R,3S)-2-(7-Benzyloxy-naphthalen-2-ylmethyl)-N*1*-((S)-1-carbamoyl-2-phenyl-ethyl)-3,N*4*-dihydroxy-succinamide] | > 20 µM
NC(=O)[C@H](Cc1ccccc1)NC(=O)[C@H](Cc1ccc2ccc(F)cc2c1)[C@H](O)C(=O)NO [(2R,3S)-N*1*-((S)-1-Carbamoyl-2-phenyl-ethyl)-2-(7-fluoro-naphthalen-2-ylmethyl)-3,N*4*-dihydroxy-succinamide] | 0.1 µM
NC(=O)[C@H](Cc1ccccc1)NC(=O)[C@H](Cc1nc2ccccc2s1)[C@H](O)C(=O)NO [(2R,3S)-2-Benzothiazol-2-ylmethyl-N*1*-((S)-1-carbamoyl-2-phenyl-ethyl)-3,N*4*-dihydroxy-succinamide] | 0.32 µM
CNC(=O)[C@H](Cc1ccccc1)NC(=O)[C@H](Cc1csc2ccccc12)[C@H](O)C(=O)NO [(2R,3S)-2-Benzo[b]thiophen-3-ylmethyl-3,N*4*-dihydroxy-N*1*-((S)-1-methylcarbamoyl-2-phenyl-ethyl)-succinamide] | > 1 µM
CNC(=O)[C@H](Cc1ccccc1)NC(=O)[C@H](Cc1cc2ccccc2o1)[C@H](O)C(=O)NO [(2R,3S)-2-Benzofuran-2-ylmethyl-3,N*4*-dihydroxy-N*1*-((S)-1-methylcarbamoyl-2-phenyl-ethyl)-succinamide] | 0.1 µM
NC(=O)[C@H](Cc1ccccc1)NC(=O)[C@H](Cc1ccc2ccccc2c1)[C@H](O)C(=O)NO [(2R,3S)-N*4*-((S)-1-Carbamoyl-2-phenyl-ethyl)-2,N*1*-dihydroxy-3-naphthalen-2-ylmethyl-succinamide] | 0.6 µM
O=C(C[C@@H](Cc1ccc2ccccc2c1)C(=O)N[C@@H](Cc1ccccc1)C(=O)NCc1ccccc1)NO [(R)-N*1*-((S)-1-Benzylcarbamoyl-2-phenyl-ethyl)-N*4*-hydroxy-2-naphthalen-2-ylmethyl-succinamide] | 1 µM
CC(C)(C)[C@H](NC(=O)[C@H](Cc1ccc2ccc(F)cc2c1)[C@H](O)C(=O)NO)C(N)=O [(2R,3S)-N*1*-((S)-1-Carbamoyl-2,2-dimethyl-propyl)-2-(7-fluoro-naphthalen-2-ylmethyl)-3,N*4*-dihydroxy-succinamide] | 0.08 µM
NC(=O)[C@H](Cc1ccccc1)NC(=O)[C@H](Cc1sc2ccccc2c1Cl)[C@H](O)C(=O)NO [(2R,3S)-N*1*-((S)-1-Carbamoyl-2-phenyl-ethyl)-2-(3-chloro-benzo[b]thiophen-2-ylmethyl)-3,N*4*-dihydroxy-succinamide] | > 10 µM
CNC(=O)[C@H](Cc1ccccc1)NC(=O)[C@H](Cc1cc2cccc(OC)c2o1)[C@H](O)C(=O)NO [(2R,3S)-2,N*1*-Dihydroxy-3-(7-methoxy-benzofuran-2-ylmethyl)-N*4*-((S)-1-methylcarbamoyl-2-phenyl-ethyl)-succinamide] | > 20 µM
CNC(=O)[C@H](Cc1ccccc1)NC(=O)[C@H](Cc1ccc2ccccc2c1)[C@H](O)C(=O)NO [(2R,3S)-2,N*1*-Dihydroxy-N*4*-((S)-1-methylcarbamoyl-2-phenyl-ethyl)-3-naphthalen-2-ylmethyl-succinamide] | 0.4 µM
CC(C)(C)[C@H](NC(=O)[C@H](Cc1ccc2ccccc2c1)[C@H](O)C(=O)NO)C(N)=O [(2R,3S)-N*4*-((S)-1-Carbamoyl-2,2-dimethyl-propyl)-2,N*1*-dihydroxy-3-naphthalen-2-ylmethyl-succinamide] | 0.02 µM
NC(=O)[C@H](Cc1ccccc1)NC(=O)[C@H](Cc1ccc2ccc(O)cc2c1)[C@H](O)C(=O)NO [(2R,3S)-N*4*-((S)-1-Carbamoyl-2-phenyl-ethyl)-2,N*1*-dihydroxy-3-(7-hydroxy-naphthalen-2-ylmethyl)-succinamide] | 0.76 µM
CC(C)(C)[C@H](NC(=O)C(C[C@@H]1CCc2ccccc2C1)[C@H](O)C(=O)NO)C(N)=O (some centres not stated) | 0.07 µM
CNC(=O)[C@@H](NC(=O)[C@H](Cc1ccc2ccccc2c1)[C@H](O)C(=O)NO)C(C)(C)C [(2R,3S)-N*4*-((S)-2,2-Dimethyl-1-methylcarbamoyl-propyl)-2,N*1*-dihydroxy-3-naphthalen-2-ylmethyl-succinamide] | 0.23 µM
